{"source": "patent US11149018B2", "about": "“Substituted N-arylethyl-2-aminoquinoline-4-carboxamides and use thereof” (Bayer Aktiengesellschaft, priority 2017, dated 2021)", "key": {"[1]": {"test_system": "occlusion of the cerebral artery", "conditions": "treatment with the FP antagonist after occlusion of the cerebral artery; cited from earlier work"}, "FP receptor": {"target": "FP receptor (Homo sapiens (Human), UniProt P43088)", "sequence (P43088 whole entry)": "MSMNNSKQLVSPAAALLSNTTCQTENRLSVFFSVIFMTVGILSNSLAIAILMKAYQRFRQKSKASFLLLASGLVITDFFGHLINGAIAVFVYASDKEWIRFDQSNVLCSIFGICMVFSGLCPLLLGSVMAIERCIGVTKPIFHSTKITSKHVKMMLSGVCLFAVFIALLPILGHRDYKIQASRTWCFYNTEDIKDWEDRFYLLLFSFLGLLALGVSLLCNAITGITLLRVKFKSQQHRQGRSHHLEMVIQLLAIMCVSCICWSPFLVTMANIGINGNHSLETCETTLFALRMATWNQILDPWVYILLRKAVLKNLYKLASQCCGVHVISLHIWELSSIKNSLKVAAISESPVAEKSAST", "conditions": "least selective of the prostanoid receptors; cited from earlier work"}, "[2]": {"test_system": "C57BL/6J mice with CCl4-induced hepatic fibrosis", "assay": "Carbon tetrachloride (CCl4)-induced hepatic fibrosis in mice", "format": "in vivo, mouse", "method": "B-21. Carbon Tetrachloride (CCl4)-Induced Hepatic Fibrosis in Mice\nSixty C57BL/6J mice (Charles River, male, 8 weeks old) were randomized and divided equally into 4 groups (15 mice per group). Group 1 served as the untreated healthy control group, whereas groups 2-4 served as mice suffering from hepatic fibrosis. Hepatic fibrosis was induced by intraperitoneal injection of 50 μl CCl4/olive oil suspension (CCl4+olive oil, 1+9 v/v) three times per week (Monday, Wednesday and Friday) over the entire study period. […] The CCl4-treated mice of group 4 served as group treated with a compound of the formula (I). The oral treatment of group 3 with the vehicle solution and of group 4 with a compound of the formula (I) started on day 1 and was continued twice daily (in the morning and evening) over the complete study period of two weeks. At the end of the study, all animals were sacrificed under anaesthetic, and the livers were removed fixed in 4% buffered formaldehyde solution for the subsequent histological processing and analysis. For this purpose, liver samples for all animals were embedded in paraffin and 3 μm-thick paraffin sections were produced. […] The sections were scanned with 20× enlargement and a light intensity of 4.8 V. The images thus produced were then converted to JPG format, and the red-stained area was quantified by means of ImageJ software (National Institute of Health, USA). […]"}, "[3]": {"test_system": "C57Bl6J mice with DQ12 silica-induced pulmonary fibrosis", "assay": "Silica-induced pulmonary fibrosis in mice, therapeutic chronic 30-day study", "format": "in vivo, mouse", "conditions": "day 10-30, mean ± SEM", "method": "B-23. Silica-Induced Pulmonary Fibrosis in Mice: Therapeutic Chronic 30-Day Study with FP Antagonists\nAdult female C57Bl6J mice (Charles River Laboratories, Sulzfeld, Germany) having a weight of 18-20 g were anaesthetized in a chamber with isoflurane (3% v/v) and treated intratracheally with 2.5 mg of crystalline DQ12 silica dissolved in 70 μL of sterile phosphate-buffered saline. Untreated control mice received the same volume of phosphate-buffered saline. […] 30 days after the installation of silica, the animals were anaesthetized with an intraperitoneal injection of ketamine/medetomidine (50 mg/kg and 0.33 mg/kg) combined with a subcutaneous injection of Temgesic (0.06 mg/kg) and sacrifice by exsanguination. Thereafter, the trachea was cannulated, and the animals' lungs were lavaged three times with 0.5 ml of ice-cold phosphate-buffered saline. Thereafter, the lungs were removed, weighed and shock-frozen in dry ice. […] The data are mean values±SEM of 8-12 animals per group. The statistical analysis was conducted with the unpaired Student's t test. P values<0.05 were considered to be significant."}, "[4]": {"test_system": "C57Bl6J mice with unilateral ureteral obstruction", "assay": "Unilateral ureteral obstruction (UUO) in mice (renal fibrosis)", "format": "in vivo, mouse", "conditions": "10 days after UUO, mean ± SD, n=10; for SR/FG positive area [%]: SiriusRed/FastGreen collagen staining of kidney; for αSMA positive area [%]: immunohistochemistry of kidney; for Gene expression CTGF / Gene expression Col1α1 / Gene expression Col3α1 / Gene expression Col4α1 / Gene expression IL1-β / Gene expression IL-6 / Gene expression KC / Gene expression MCP-1 / Gene expression TGF-β / Gene expression αSMA: kidney, % of placebo group (=100%)", "excerpt": "B-22. Animal Model of Unilateral Ureteral Obstruction (UUO) in Mice (Renal Fibrosis) Unilateral ureteral obstruction in mice and rats is a widely used animal model for interstitial renal fibrosis (Chevalier et al., Kidney Int. 2009, 75, 1145-1152). Permanent occlusion of the ureter leads, as a result of the sustained accumulation of the urine, to increased inflammatory cell infiltration into the interstitium, to tubular cell death and to irreversible loss of the renal parenchyma. After 5 to 7 days, owing to the elevated deposition of extracellular matrix proteins, interstitial fibrosis arises. Adult male […] mice (Charles River Laboratories, Sulzfeld, Germany) having a weight of 20-22 g were anaesthetized with isoflurane, then, after opening up the abdominal cavity, a ureter was ligated and severed beneath the ligature. In the sham-operated control mice (SHAM), the abdominal cavity was merely opened up, but the ureter was not ligated. […] 10 days after the UUO, the animals were anaesthetized and sacrificed by exsanguination. Thereafter, the kidneys were removed and renal fibrosis was assessed on the basis of the expression of pro-inflammatory and pro-fibrotic markers, and a histological assessment of the renal tissue."}}, "data": [{"smiles": "O=C(O)CCC/C=C\\C[C@@H]1[C@@H](/C=C/[C@H](O)C2Cc3ccccc3C2)[C@@H](F)C[C@@H]1O", "note": "[AL-8810]", "values": [{"measurement": "neuroprotective effect", "setting": "[1]", "result": "significant neuroprotective effects"}]}, {"smiles": "CCCCC[C@H](O)/C=C/[C@H]1C(=O)C[C@H](O)[C@@H]1C/C=C\\CCCC(=O)O", "note": "[PGD2, prostaglandin D2]", "values": [{"measurement": "binding affinity to the FP receptor", "setting": "FP receptor", "result": "nanomolar affinities"}]}, {"smiles": "CCCCC[C@H](O)/C=C/[C@H]1[C@H](O)CC(=O)[C@@H]1C/C=C\\CCCC(=O)O", "note": "[PGE2, prostaglandin E2]", "values": [{"measurement": "binding affinity to the FP receptor", "setting": "FP receptor", "result": "nanomolar affinities"}]}, {"smiles": "Cc1c(N2CCCC2)nc2ccc(Br)cc2c1C(=O)NCC(CCC(=O)O)c1ccccc1Cl.Cl", "note": "(single isomer, unassigned; (+)) [Example 284, (+)-5-({[6-Bromo-3-methyl-2-(pyrrolidin-1-yl)quinolin-4-yl]carbonyl}amino)-4-(2-chlorophenyl)pentanoic acid hydrochloride]", "values": [{"measurement": "Progression of fibrosis (result in words)", "setting": "[2]; 2-week study in mice with hepatic fibrosis, p<0.01, two-way ANOVA with Dunnett post-hoc test", "result": "significant reduction in the progression of fibrosis"}, {"measurement": "Sirius red [% liver area]", "setting": "[2]; CCl4 + 100 mg/kg, oral twice daily, 2 weeks, mean ± SD", "result": "3.51 ± 0.65", "unit": "% liver area"}, {"measurement": "Hydroxyproline [ng/lung]", "setting": "[3]; Silica + 10 mg/kg po bid", "result": "2341 ± 54.99 (n = 12) ng/lung"}, {"measurement": "Hydroxyproline [ng/lung]", "setting": "[3]; Silica + 30 mg/kg po bid", "result": "2185 ± 86.79 (n = 12) ng/lung"}, {"measurement": "SR/FG positive area [%]", "setting": "[4]; 30 mg/kg", "result": "38.74 ± 9.12", "unit": "%"}, {"measurement": "αSMA positive area [%]", "setting": "[4]; 30 mg/kg", "result": "25.19 ± 3.23", "unit": "%"}, {"measurement": "Gene expression CTGF", "setting": "[4]; 30 mg/kg", "result": "105.67 ± 52.33", "unit": "%"}, {"measurement": "Gene expression Col1α1", "setting": "[4]; 30 mg/kg", "result": "76.70 ± 36.22", "unit": "%"}, {"measurement": "Gene expression Col3α1", "setting": "[4]; 30 mg/kg", "result": "103.74 ± 37.60", "unit": "%"}, {"measurement": "Gene expression Col4α1", "setting": "[4]; 30 mg/kg", "result": "71.15 ± 20.20", "unit": "%"}, {"measurement": "Gene expression IL1-β", "setting": "[4]; 30 mg/kg", "result": "81.91 ± 31.93", "unit": "%"}, {"measurement": "Gene expression IL-6", "setting": "[4]; 30 mg/kg", "result": "207.04 ± 389.13", "unit": "%"}, {"measurement": "Gene expression KC", "setting": "[4]; 30 mg/kg", "result": "65.02 ± 15.98", "unit": "%"}, {"measurement": "Gene expression MCP-1", "setting": "[4]; 30 mg/kg", "result": "93.98 ± 26.32", "unit": "%"}, {"measurement": "Gene expression TGF-β", "setting": "[4]; 30 mg/kg", "result": "67.57 ± 32.67", "unit": "%"}, {"measurement": "Gene expression αSMA", "setting": "[4]; 30 mg/kg", "result": "72.97 ± 39.94", "unit": "%"}, {"measurement": "SR/FG positive area [%]", "setting": "[4]; 60 mg/kg", "result": "34.66 ± 7.59", "unit": "%"}, {"measurement": "αSMA positive area [%]", "setting": "[4]; 60 mg/kg", "result": "22.28 ± 4.04", "unit": "%"}, {"measurement": "Gene expression CTGF", "setting": "[4]; 60 mg/kg", "result": "102.07 ± 26.99", "unit": "%"}, {"measurement": "Gene expression Col1α1", "setting": "[4]; 60 mg/kg", "result": "38.90 ± 13.11", "unit": "%"}, {"measurement": "Gene expression Col3α1", "setting": "[4]; 60 mg/kg", "result": "126.15 ± 46.51", "unit": "%"}, {"measurement": "Gene expression Col4α1", "setting": "[4]; 60 mg/kg", "result": "45.97 ± 8.44", "unit": "%"}, {"measurement": "Gene expression IL1-β", "setting": "[4]; 60 mg/kg", "result": "112.05 ± 71.38", "unit": "%"}, {"measurement": "Gene expression IL-6", "setting": "[4]; 60 mg/kg", "result": "494.83 ± 850.76", "unit": "%"}, {"measurement": "Gene expression KC", "setting": "[4]; 60 mg/kg", "result": "50.69 ± 22.02", "unit": "%"}, {"measurement": "Gene expression MCP-1", "setting": "[4]; 60 mg/kg", "result": "117.41 ± 38.15", "unit": "%"}, {"measurement": "Gene expression TGF-β", "setting": "[4]; 60 mg/kg", "result": "31.79 ± 9.06", "unit": "%"}, {"measurement": "Gene expression αSMA", "setting": "[4]; 60 mg/kg", "result": "51.72 ± 21.33", "unit": "%"}]}]}
